In ChEMBL document CHEMBL4421737, “D-3-phosphoglycerate dehydrogenase allosteric inhibitor and use thereof” (2018):
Active and inactive are the calls of the source. The rule behind the calls is not given here.

Columns and labels:
[1] = tested on: MCF7; assay: Cytotoxicity against human MCF7 cells assessed as reduction in cell viability incubated for 72 hrs by MTT assay; type: functional, cell-based; conditions: MCF7, 72 h
[2] = tested on: MDA-MB-468; assay: Antitumor activity against human MDA-MB-468 cells xenografted in NOD.CB17-Prkdc scid/J mouse assessed as inhibition of tumor growth at 20 mg/kg/day measured every two days up to 70 days post treatment initiation; type: functional, organism-based
[3] = tested on: MDA-MB-468; assay: Antitumor activity against human MDA-MB-468 cells xenografted in NOD.CB17-Prkdc scid/J mouse assessed as inhibition of tumor growth at 20 mg/kg/day co-treated with 2.5mg/kg/4day doxorubicin measured every two days up to 11 days post treatment initiation relative to compound alone; type: functional
[4] = tested on: MDA-MB-468; assay: Antitumor activity against human MDA-MB-468 cells xenografted in NOD.CB17-Prkdc scid/J mouse assessed as inhibition of tumor growth at 20 mg/kg/day co-treated with 2.5mg/kg/4day doxorubicin measured every two days up to 11 days post treatment initiation relative to doxorubicin alone; type: functional
[5] = tested on: ZR-75-1; assay: Cytotoxicity against human ZR-75-1 cells assessed as reduction in cell viability incubated for 72 hrs by MTT assay; type: functional, cell-based; conditions: ZR-75-1, 72 h
[6] = tested on: DLD-1; assay: Cytotoxicity against human DLD1 cells assessed as reduction in cell viability incubated for 72 hrs by MTT assay; type: functional, cell-based; conditions: DLD-1, 72 h
[7] = tested on: MCF-10A; assay: Cytotoxicity against human MCF10A cells assessed as reduction in cell viability incubated for 72 hrs by MTT assay; type: cell-based
[8] = tested on: HCC70; assay: Cytotoxicity against human HCC70 cells assessed as reduction in cell viability incubated for 72 hrs by MTT assay; type: functional, cell-based; conditions: HCC70, 72 h
[9] = tested on: MDA-MB-231; assay: Cytotoxicity against human MDA-MB-231 cells assessed as reduction in cell viability incubated for 72 hrs by MTT assay; type: functional, cell-based; conditions: MDA-MB-231, 72 h
[10] = tested on: MDA-MB-468; assay: Cytotoxicity against human MDA-MB-468 cells assessed as reduction in cell viability incubated for 72 hrs by MTT assay; type: functional, cell-based; conditions: MDA-MB-468, 72 h
[11] = tested on: MDA-MB-468; assay: Induction of cell cycle arrest in human MDA-MB-468 cells assessed as accumulation at G0/G1 phase at 10 to 160 uM incubated for 24 hrs by propidium iodide staining based flow cytometry; type: functional
[12] = tested on: MDA-MB-468; assay: Induction of cell cycle arrest in human MDA-MB-468 cells assessed as accumulation at G0/G1 phase at 2.5 to 40 uM incubated for 24 hrs by propidium iodide staining based flow cytometry; type: functional

Compound	EC50 [1] [µM]	TGI [2]	TGI [3] [%]	TGI [4] [%]	EC50 [5] [µM]	EC50 [6] [µM]	EC50 [7] [µM]	EC50 [8] [µM]	EC50 [9] [µM]	EC50 [10] [µM]	Activity [11]	Activity [12]
CCNC(=S)N/N=C/c1ccc(-c2ccc(C(=O)O)c(Cl)c2)o1	> 200	Active	41	41	125	167	64.7	10	> 200	6.9	Active	–
O=C(N/N=C/c1cc([N+](=O)[O-])ccc1O)c1ccc(O)cc1O	–	Active	–	–	83.4	18.3	45.8	10.8	27.7	7.7	–	Active
